The source made the active and inactive calls. No cut-off for these calls is given here.
Assays:
[1] = system: Plasmodium yoelii nigeriensis; experiment: Reduced parasitemia in multidrug-resistant Plasmodium yoelii nigeriensis infected Swiss mice (Mus musculus) at 12 mg/kg peroral dose after 4 days; assay type: functional; parameters: scale not given: the % may be the effect or the level left; conditions: route oral
[2] = system: Plasmodium yoelii nigeriensis; experiment: Survival in multidrug-resistant Plasmodium yoelii nigeriensis infected Swiss mice (Mus musculus) at 12 mg/kg peroral dose after 28 days; assay type: functional
[3] = Partition coefficient, log P of the compound; assay type: physicochemical; conditions: octanol/water
[4] = system: Plasmodium yoelii nigeriensis; experiment: Reduced parasitemia in multidrug-resistant Plasmodium yoelii nigeriensis infected Swiss mice (Mus musculus) at 48 mg/kg peroral dose after 4 days; assay type: functional; parameters: scale not given: the % may be the effect or the level left; conditions: route oral
[5] = system: Plasmodium yoelii nigeriensis; experiment: Antimalarial activity as reduced parasitemia day 4 against multidrug-resistant Plasmodium yoelii nigeriensis infected Swiss mice (Mus musculus) at 24 mg/kg/day peroral dose over 4 days; assay type: functional; parameters: scale not given: the % may be the effect or the level left; conditions: route oral
[6] = Chemical stability in acidic solution containing tetrahydrofuran and 10% aqueous HCl after 96 hrs; assay type: physicochemical; conditions: acidic solution of tetrahydrofuran and 10% aqueous HCl; read-out: Stability

SMILES	Activity [1]	Activity ([2]; route oral)	logP [3]	Activity [4]	Activity [5]	remaining at 96 h [6]	Activity [2]
C[C@H]1[C@H](OC(=O)CC23CC4CC(CC(C4)C2)C3)O[C@@H]2O[C@]3(C)CC[C@H]4[C@H](C)CC[C@@H]1[C@@]24OO3	100%	20%	5.99	100%	100%		
CCO[C@H]1O[C@@H]2O[C@@]3(C)CC[C@H]4[C@H](C)CC[C@@H]([C@H]1C)[C@@]24OO3 [ARTEMOTIL]				100%	100%		
C[C@H]1[C@H](OCc2ccc(-c3ccccc3)cc2)O[C@@H]2O[C@]3(C)CC[C@H]4[C@H](C)CC[C@@H]1[C@@]24OO3	100%						
C[C@H]1[C@H](OC(=O)C2c3ccccc3-c3ccccc32)O[C@@H]2O[C@]3(C)CC[C@H]4[C@H](C)CC[C@@H]1[C@@]24OO3	100%		6.61	100%	100%	80%	
C[C@H]1[C@H](OC(=O)COc2ccc(-c3ccccc3)cc2)O[C@@H]2O[C@]3(C)CC[C@H]4[C@H](C)CC[C@@H]1[C@@]24OO3	100%		6.53	100%	100%		
C[C@H]1[C@H](OC(=O)CC2c3ccccc3-c3ccccc32)O[C@@H]2O[C@]3(C)CC[C@H]4[C@H](C)CC[C@@H]1[C@@]24OO3	100%		6.79	100%	100%		inactive
C[C@H]1[C@H](OC(=O)CC2C3CC4CC(C3)CC2C4)O[C@@H]2O[C@]3(C)CC[C@H]4[C@H](C)CC[C@@H]1[C@@]24OO3 (some centres not stated)	100%		5.85	100%	100%		
C[C@H]1[C@H](OCC23CC4CC(CC(C4)C2)C3)O[C@@H]2O[C@]3(C)CC[C@H]4[C@H](C)CC[C@@H]1[C@@]24OO3	100%						
C[C@H]1[C@H](OC(=O)CCC(=O)O)O[C@@H]2O[C@@]3(C)CC[C@H]4[C@H](C)CC[C@@H]1[C@@]24OO3 [ARTESUNATE]				100%	100%		
C[C@H]1[C@H](OC(=O)Cc2ccc(-c3ccccc3)cc2)O[C@@H]2O[C@]3(C)CC[C@H]4[C@H](C)CC[C@@H]1[C@@]24OO3			6.89	100%	100%		
C[C@H]1[C@H](OC(=O)CCC23CC4CC(CC(C4)C2)C3)O[C@@H]2O[C@]3(C)CC[C@H]4[C@H](C)CC[C@@H]1[C@@]24OO3	100%		6.41	100%	100%		
C[C@H]1[C@H](OC(=O)c2ccc(-c3ccccc3)cc2)O[C@@H]2O[C@]3(C)CC[C@H]4[C@H](C)CC[C@@H]1[C@@]24OO3			6.95	100%	100%		
C[C@H]1[C@H](OC(=O)C23CC4CC(CC(C4)C2)C3)O[C@@H]2O[C@]3(C)CC[C@H]4[C@H](C)CC[C@@H]1[C@@]24OO3	100%		6.05	100%	100%		
C[C@H]1[C@H](OC(=O)COc2ccccc2-c2ccccc2)O[C@@H]2O[C@]3(C)CC[C@H]4[C@H](C)CC[C@@H]1[C@@]24OO3	100%		6.53	100%	100%		

From ChEMBL document CHEMBL1143215, “Orally active esters of dihydroartemisinin: Synthesis and antimalarial activity against multidrug-resistant Plasmodium yoelii in mice” (Bioorg Med Chem Lett, 2008)
